The experiment has as its target T1, cellular PARG (Homo sapiens, UniProt Q86W56).
T1 construct: endogenous in cells; host or cells: HeLa
Kind of experiment: Nuclear PAR accumulation assay (immunofluorescence high-content imaging). The format is cell-based. Conditions: HeLa cells, 1 hour compound treatment then MMS 50 μg/mL for an additional hour. Put shortly: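 HeLa cells pretreated 1 h at 37 °C with compound, then 1 h with 50 μg/mL MMS (final), methanol-fixed and immunostained for PAR with DAPI nuclear counterstain. Nuclear PAR intensity and percent PAR-positive cells quantified by high-content imaging (≥1,000 cells/well). IC50 by four-parameter logistic fit, normalized to 0.1% DMSO and reference-compound controls.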
T1 sequence (Q86W56 whole entry): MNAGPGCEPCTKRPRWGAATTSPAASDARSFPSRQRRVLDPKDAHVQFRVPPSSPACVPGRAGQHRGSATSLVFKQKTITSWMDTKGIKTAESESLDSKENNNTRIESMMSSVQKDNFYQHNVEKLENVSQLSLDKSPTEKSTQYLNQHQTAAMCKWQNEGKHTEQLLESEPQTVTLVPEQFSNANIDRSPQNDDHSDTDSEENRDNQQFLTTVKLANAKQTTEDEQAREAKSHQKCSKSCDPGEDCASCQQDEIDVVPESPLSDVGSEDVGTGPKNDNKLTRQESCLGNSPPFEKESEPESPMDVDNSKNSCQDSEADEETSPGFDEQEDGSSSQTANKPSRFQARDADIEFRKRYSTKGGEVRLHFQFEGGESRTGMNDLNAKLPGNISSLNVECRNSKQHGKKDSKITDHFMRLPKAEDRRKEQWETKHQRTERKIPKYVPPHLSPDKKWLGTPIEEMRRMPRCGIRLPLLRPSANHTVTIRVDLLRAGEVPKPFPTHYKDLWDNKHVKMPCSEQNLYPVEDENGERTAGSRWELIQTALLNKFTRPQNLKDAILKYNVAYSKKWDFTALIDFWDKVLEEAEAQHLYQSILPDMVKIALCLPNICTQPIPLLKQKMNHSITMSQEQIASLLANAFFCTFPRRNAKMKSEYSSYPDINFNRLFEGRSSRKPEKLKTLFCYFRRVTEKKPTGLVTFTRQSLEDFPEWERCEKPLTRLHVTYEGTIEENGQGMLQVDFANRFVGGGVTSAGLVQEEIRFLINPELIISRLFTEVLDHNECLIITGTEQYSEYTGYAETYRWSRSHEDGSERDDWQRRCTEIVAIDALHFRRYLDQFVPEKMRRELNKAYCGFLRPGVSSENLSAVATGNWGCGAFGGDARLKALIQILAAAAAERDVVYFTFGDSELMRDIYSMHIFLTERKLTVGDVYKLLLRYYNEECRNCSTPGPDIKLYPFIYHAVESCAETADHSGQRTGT
Broadly, the IC50 is the concentration needed to halve the response being measured. Low values mean greater potency, high ones weaker potency. For `C#C[C@@H]1CN=C2N(Cc3c(C)noc3C)C(=O)c3cc(S(=O)(=O)NC4(C)CC4)ccc3N21` [Example 71, (R)-4-((3,5-dimethylisoxazol-4-yl)methyl)-1-ethynyl-N-(1-methylcyclopropyl)-5-oxo-1,2,4,5-tetrahydroimidazo[1,2-a]quinazoline-7-sulfonamide], the IC50 is at most 100 nM.
Consider `C#C[C@H]1CN=C2N(Cc3c(C)noc3C)C(=O)c3cc(S(=O)(=O)NC4(C)CC4)ccc3N21` [Example 72, (S)-4-((3,5-dimethylisoxazol-4-yl)methyl)-1-ethynyl-N-(1-methylcyclopropyl)-5-oxo-1,2,4,5-tetrahydroimidazo[1,2-a]quinazoline-7-sulfonamide], for which the IC50 was at most 100 nM.
Next, `Cc1nc(C)c(CN2C(=O)c3cc(S(=O)(=O)NC4(C)CC4)ccc3N3C2=NC[C@H]3C)s1` [Example 73, (R)-4-((2,4-dimethylthiazol-5-yl)methyl)-1-methyl-N-(1-methylcyclopropyl)-5-oxo-1,2,4,5-tetrahydroimidazo[1,2-a]quinazoline-7-sulfonamide]: at most 100 nM.
Next, `C[C@@H]1CN=C2N(Cc3cnn(C)c3)C(=O)c3cc(S(=O)(=O)NC4(C)CC4)c(F)cc3N21` [Example 74, (R)-8-fluoro-1-methyl-4-((1-methyl-1H-pyrazol-4-yl)methyl)-N-(1-methylcyclopropyl)-5-oxo-1,2,4,5-tetrahydroimidazo[1,2-a]quinazoline-7-sulfonamide]: at most 100 nM; `C[C@H]1CCN=C2N(Cc3cnn(C)c3)C(=O)c3cc(S(=O)(=O)NC4(C)CC4)ccc3N21` [Example 75, (S)-1-methyl-5-((1-methyl-1H-pyrazol-4-yl)methyl)-N-(1-methylcyclopropyl)-6-oxo-2,3,5,6-tetrahydro-1H-pyrimido[1,2-a]quinazoline-8-sulfonamide]: at most 100 nM.
`C[C@@H]1CCN=C2N(Cc3cnn(C)c3)C(=O)c3cc(S(=O)(=O)NC4(C)CC4)ccc3N21` [Example 76, (R)-1-methyl-5-((1-methyl-1H-pyrazol-4-yl)methyl)-N-(1-methylcyclopropyl)-6-oxo-2,3,5,6-tetrahydro-1H-pyrimido[1,2-a]quinazoline-8-sulfonamide] displayed an IC50 of at most 100 nM.
With `COC[C@@H]1CN=C2N(Cc3cnn(C)c3)C(=O)c3cc(S(=O)(=O)NC4(C)CC4)ccc3N21` [Example 77, (S)-1-(methoxymethyl)-4-((1-methyl-1H-pyrazol-4-yl)methyl)-N-(1-methylcyclopropyl)-5-oxo-1,2,4,5-tetrahydroimidazo[1,2-a]quinazoline-7-sulfonamide], the IC50 is at most 100 nM.
Compound `COC[C@H]1CN=C2N(Cc3cnn(C)c3)C(=O)c3cc(S(=O)(=O)NC4(C)CC4)ccc3N21` [Example 78, (R)-1-(methoxymethyl)-4-((1-methyl-1H-pyrazol-4-yl)methyl)-N-(1-methylcyclopropyl)-5-oxo-1,2,4,5-tetrahydroimidazo[1,2-a]quinazoline-7-sulfonamide] showed an IC50 of 100 to 1000 nM.
In turn, `Cn1cc(CN2C(=O)c3cc(S(=O)(=O)NC4(C)CC4)ccc3N3C2=N[C@H]2CCC[C@H]23)cn1` [Example 79, (7aS,10aR)-6-((1-methyl-1H-pyrazol-4-yl)methyl)-N-(1-methylcyclopropyl)-5-oxo-6,7a,8,9,10,10a-hexahydro-5H-cyclopenta[4,5]imidazo[1,2-a]quinazoline-3-sulfonamide] registered an IC50 of at most 100 nM.
Turning to `Cc1nn(C)cc1CN1C(=O)c2cc(S(=O)(=O)NC3(C)CC3)ccc2N2C1=NC[C@H]2C` [Example 80, (R)-4-((1,3-dimethyl-1H-pyrazol-4-yl)methyl)-1-methyl-N-(1-methylcyclopropyl)-5-oxo-1,2,4,5-tetrahydroimidazo[1,2-a]quinazoline-7-sulfonamide], the IC50 was at most 100 nM.
As to `Cc1c(CN2C(=O)c3cc(S(=O)(=O)NC4(C)CC4)ccc3N3C2=NC[C@H]3C)cnn1C` [Example 81, (R)-4-((1,5-dimethyl-1H-pyrazol-4-yl)methyl)-1-methyl-N-(1-methylcyclopropyl)-5-oxo-1,2,4,5-tetrahydroimidazo[1,2-a]quinazoline-7-sulfonamide], the IC50 was at most 100 nM.
With `Cc1nc(C)c([C@@H]2CN=C3N(CC4CC4)C(=O)c4cc(S(=O)(=O)NC5(C)CC5)ccc4N32)s1` [Example 82, (S)-4-(cyclopropylmethyl)-1-(2,4-dimethylthiazol-5-yl)-N-(1-methylcyclopropyl)-5-oxo-1,2,4,5-tetrahydroimidazo[1,2-a]quinazoline-7-sulfonamide], the IC50 fell in the range of 100 to 1000 nM.
Turning to `Cn1cc(CN2C(=O)c3cc(S(=O)(=O)NC4(C)CC4)ccc3N3C2=NC[C@H]3C#CC2CC2)cn1` [Example 83, (R)-1-(cyclopropylethynyl)-4-((1-methyl-1H-pyrazol-4-yl)methyl)-N-(1-methylcyclopropyl)-5-oxo-1,2,4,5-tetrahydroimidazo[1,2-a]quinazoline-7-sulfonamide], the IC50 is at most 100 nM.
Turning to `Cn1cc(CN2C(=O)c3cc(S(=O)(=O)NC4(C)CC4)ccc3N3C2=NC[C@@H]3C#CC2CC2)cn1` [Example 84, (S)-1-(cyclopropylethynyl)-4-((1-methyl-1H-pyrazol-4-yl)methyl)-N-(1-methylcyclopropyl)-5-oxo-1,2,4,5-tetrahydroimidazo[1,2-a]quinazoline-7-sulfonamide], the IC50 lay within 1000 to 10000 nM.
Next, `[2H]C([2H])(c1cnn(C)c1)N1C(=O)c2cc(S(=O)(=O)NC3(C)CC3)ccc2N2C1=N[C@H]1CCC[C@H]12` [Example 85, (7aS,10aR)-6-(dideutero(1-methyl-1H-pyrazol-4-yl)methyl)-N-(1-methylcyclopropyl)-5-oxo-6,7a,8,9,10,10a-hexahydro-5H-cyclopenta[4,5]imidazo[1,2-a]quinazoline-3-sulfonamide]: at most 100 nM; `[2H]C([2H])(c1cnn(C)c1)N1C(=O)c2cc(S(=O)(=O)NC3(C)CC3)c(F)cc2N2C1=NC[C@H]2C` [Example 86, (R)-4-(dideutero(1-methyl-1H-pyrazol-4-yl)methyl)-8-fluoro-1-methyl-N-(1-methylcyclopropyl)-5-oxo-1,2,4,5-tetrahydroimidazo[1,2-a]quinazoline-7-sulfonamide]: at most 100 nM; `[2H]C([2H])(c1cnn(C)c1)N1C(=O)c2cc(S(=O)(=O)NC3(C)CC3)ccc2N2C1=NC[C@H]2C(F)(F)F` [Example 87, (S)-4-(dideutero(1-methyl-1H-pyrazol-4-yl)methyl)-N-(1-methylcyclopropyl)-5-oxo-1-(trifluoromethyl)-1,2,4,5-tetrahydroimidazo[1,2-a]quinazoline-7-sulfonamide]: at most 100 nM.
As for `[2H]C([2H])(c1cnn(C)c1)N1C(=O)c2cc(S(=O)(=O)NC3(C#N)CC3)ccc2N2C1=N[C@H]1CCC[C@H]12` [Example 88, (7aS,10aR)-N-(1-cyanocyclopropyl)-6-(dideutero(1-methyl-1H-pyrazol-4-yl)methyl)-5-oxo-6,7a,8,9,10,10a-hexahydro-5H-cyclopenta[4,5]imidazo[1,2-a]quinazoline-3-sulfonamide], the IC50 is at most 100 nM.
The result for `[2H]C([2H])(c1sc(C)nc1C)N1C(=O)c2cc(S(=O)(=O)NC3(C)CC3)ccc2N2C1=NC[C@H]2C` [Example 89, (R)-4-(dideutero(2,4-dimethylthiazol-5-yl)methyl)-1-methyl-N-(1-methylcyclopropyl)-5-oxo-1,2,4,5-tetrahydroimidazo[1,2-a]quinazoline-7-sulfonamide] reads at most 100 nM; that for `C[C@@H]1CN=C2N(Cc3cn(C)nn3)C(=O)c3cc(S(=O)(=O)NC4(C)CC4)ccc3N21` [Example 90, (R)-1-methyl-4-((1-methyl-1H-1,2,3-triazol-4-yl)methyl)-N-(1-methylcyclopropyl)-5-oxo-1,2,4,5-tetrahydroimidazo[1,2-a]quinazoline-7-sulfonamide], 100 to 1000 nM; that for `[2H]C([2H])(c1cnn(C)c1)N1C(=O)c2cc(S(=O)(=O)NC3(C)CC3)ccc2N2C1=NC[C@@H]2C` [Example 91, (S)-4-(dideutero(1-methyl-1H-pyrazol-4-yl)methyl)-1-methyl-N-(1-methylcyclopropyl)-5-oxo-1,2,4,5-tetrahydroimidazo[1,2-a]quinazoline-7-sulfonamide], 100 to 1000 nM.
`[2H]C([2H])(c1cnn(C)c1)N1C(=O)c2cc(S(=O)(=O)NC3(C)CC3)cc(OC)c2N2C1=NC[C@H]2C` [Example 92, (R)-4-(dideutero(1-methyl-1H-pyrazol-4-yl)methyl)-9-methoxy-1-methyl-N-(1-methylcyclopropyl)-5-oxo-1,2,4,5-tetrahydroimidazo[1,2-a]quinazoline-7-sulfonamide]: the IC50 was 100 to 1000 nM.
On to `Cn1cc(CN2C(=O)c3cc(S(=O)(=O)NC4(C)CC4)ccc3N3C2=N[C@H]2COC[C@H]23)cn1` [Example 93, (7aR,10aS)-6-((1-methyl-1H-pyrazol-4-yl)methyl)-N-(1-methylcyclopropyl)-5-oxo-5,6,7a,8,10,10a-hexahydrofuro[3′,4′:4,5]imidazo[1,2-a]quinazoline-3-sulfonamide], for which the IC50 was at most 100 nM.
`Cc1nc(C)c(CN2C(=O)c3cc(S(=O)(=O)NC4CC4)ccc3N3C2=NC[C@H]3C)s1` [Example 94, (R)-N-cyclopropyl-4-((2,4-dimethylthiazol-5-yl)methyl)-1-methyl-5-oxo-1,2,4,5-tetrahydroimidazo[1,2-a]quinazoline-7-sulfonamide]: the IC50 was at most 100 nM.
Next, `CN(C)C[C@@H]1CN=C2N(Cc3cnn(C)c3)C(=O)c3cc(S(=O)(=O)NC4(C)CC4)ccc3N21` [Example 95, (R)-1-((dimethylamino)methyl)-4-((1-methyl-1H-pyrazol-4-yl)methyl)-N-(1-methylcyclopropyl)-5-oxo-1,2,4,5-tetrahydroimidazo[1,2-a]quinazoline-7-sulfonamide]: at most 100 nM.
